Experimental data as given in paper PMC5355811 (Nature Communications, 2017).
Read-outs that look alike come from different tables or passages of the source.

How the values were obtained:
[1] = test system: Ba/F3 cells expressing EGFR-del19; test: CellTiter-Glo cell viability assay, Ba/F3 EGFR-del19; type: cell-based; settings: Mus musculus
Procedure: (§1) Three-day cell viability assays were carried out by plating 2,000, 1,500 and 2,000 cells per well of Ba/F3, PC9 or MGH121, respectively, into black transparent-bottom 96-well plates. On the same day for Ba/F3 cells and the following day for PC9 and MGH121 cells, the cells were treated with each TKI across a 10-dose range from 0.3 nmol l^−1 to 10 μmol l^−1. After 72 h of drug treatment, cell viability was measured using the CellTiter-Glo assay (Promega).

[2] = test system: Ba/F3 cells expressing EGFR-T790M/del19; test: CellTiter-Glo cell viability assay, Ba/F3 EGFR-T790M/del19; type: cell-based; settings: Mus musculus
Procedure: as §1

[3] = test system: Ba/F3 cells expressing EGFR-L858R; test: CellTiter-Glo cell viability assay, Ba/F3 EGFR-L858R; type: cell-based; settings: read-out: IC50, Ba/F3 L858R
Procedure: as §1

PC9 parent cells (del19) = test: CellTiter-Glo cell viability assay, PC9 parent; type: cell-based; settings: read-out: IC50, PC9 parent
Procedure: as §1

[4] = test system: PC9 T790M cells (T790M/del19); test: CellTiter-Glo cell viability assay, PC9 T790M; type: cell-based; settings: read-out: IC50, PC9 T790M
Procedure: as §1

[5] = test system: PC9 triple-mutant cells (C797S/T790M/del19); test: CellTiter-Glo cell viability assay, PC9 triple mutant; type: cell-based; settings: read-out: IC50, PC9 triple
Procedure: as §1

[6] = test system: MGH121 parental cells (T790M/del19); test: cells; type: cell-based; settings: Homo sapiens, MGH121, 72 h, read-out: IC50, MGH121-pt
Procedure: as §1

[7] = test system: MGH121-res2 cells (C797S/T790M/del19); test: cells; type: cell-based; settings: Homo sapiens, MGH121, 72 h, read-out: IC50, MGH121-res2
Procedure: as §1

[8] = test system: Ba/F3 cells of EGFR-del19; test: Drug sensitivity screening at 100 nM, Ba/F3 EGFR-del19; type: cell-based; settings: Mus musculus, BaF3, 72 h, 100 nM inhibitor, 72 h, DMSO = 100; mean of three independent experiments (Fig. 1a data); read-out: Relative cell viability (ratio to DMSO control), del19
Procedure: (§2) After the incubation, cell viability was measured using CellTiter-Glo assay. The relative cell viability was calculated as a ratio of each value to that of the DMSO control.

[9] = test system: Ba/F3 cells of EGFR-T790M/del19; test: Drug sensitivity screening at 100 nM, Ba/F3 EGFR-T790M/del19; type: cell-based; settings: Mus musculus, BaF3, 72 h, 100 nM inhibitor, 72 h, DMSO = 100; mean of three independent experiments (Fig. 1a data); read-out: Relative cell viability (ratio to DMSO control), del19/T790M
Procedure: as §2

[10] = test system: Ba/F3 cells of EGFR-C797S/T790M/del19; test: Drug sensitivity screening at 100 nM, Ba/F3 EGFR-C797S/T790M/del19; type: cell-based; settings: Mus musculus
Procedure: as §2

[11] = test system: phosphorylation of EGFR in Ba/F3 cells expressing EGFR-C797S/T790M/del19; test: Western blotting of EGFR signalling, Ba/F3 triple-del19; type: cell-based; settings: 6 h
Procedure: (§3) Tumour tissues or cells grown under the specified conditions were washed with cold PBS before addition of the SDS lysis buffer (100 mM Tris, 1% SDS, 10% glycerol). Lysates were transferred to microtubes, boiled for 5 min at 100 °C and then vortexed. Protein quantification was performed using the BCA Protein Assay Reagent (Pierce) according to the manufacturer's protocol. Western blot analyses were conducted after separation by SDS-PAGE and transferred to polyvinylidene difluoride membranes.

[12] = test system: EGFR phosphorylation in PC9 triple-mutant cells; test: Western blotting of EGFR signalling, PC9 triple mutant; type: cell-based
Procedure: as §3

[13] = test system: A431, A549 and H460 cells; test: CellTiter-Glo cell viability assay, non-EGFR-mutated cell lines; type: cell-based; settings: A431 (EGFR amplification), A549 and H460 (KRAS mutation); 72 h
[14] = test system: PC9-T790M (T790M/del19) xenograft; test: PC9-T790M xenograft; type: in vivo, Balb-c nu/nu mice; settings: osimertinib 50 mg kg^−1, brigatinib 75 mg kg^−1
Procedure: (§4) Tumour growth was monitored twice weekly by bilateral caliper measurement, and tumour volume was calculated as 0.5 × length × width × width (mm^3). […] The mice whose implanted tumour size was ranked in the top 5% and bottom 5% were excluded from randomization to minimize the variation of tumour sizes. The mice were treated once daily by oral gavage for the indicated period. Relative tumour volume was calculated by dividing by the tumour volume on day 0. The body weights of the mice were measured twice weekly. Implanted tumours were resected from the mice on day 15 of drug treatment and were fixed with formalin. The mice were euthanized when the tumour size exceeded 700 mm^3 within several days. The investigators performing tumour measurements were not blinded to treatment groups. The sample size (minimum n=6 per treatment group) was selected to ensure satisfactory inter-animal reproducibility. The Mann–Whitney U test was used for the statistical analysis of the mice experiments.

[15] = test system: MGH121-res2 (C797S/T790M/del19) xenograft; test: MGH121-res2 xenograft; type: in vivo; settings: brigatinib 75 mg kg^−1 po; cetuximab 1 mg per mouse two times a week
Procedure: (a,b) MGH121-res2 expressing EGFR-C797S/T790M/del19 were subcutaneously implanted into SCID-beige mice. […] Tumour volume (V) was calculated as 0.5 × length × width^2, and the body weights (B.W.) of the mice were measured twice weekly. N=6. Results are expressed as mean±s.d.

[16] = test system: cell surface EGFR in PC9 triple-mutant cells; test: Flow cytometry of cell surface EGFR; type: cell-based; settings: 0, 6, 24 and 48 h
EGFR-C797S/T790M/L858R = EGFR-C797S/T790M/L858R (Homo sapiens, UniProt P00533, C797S/L858R/T790M); settings: inhibition curves shifted with ATP concentration, triple-mutant and wild-type EGFR
Sequence of EGFR-C797S/T790M/L858R (P00533 712-979 T790M/C797S/L858R): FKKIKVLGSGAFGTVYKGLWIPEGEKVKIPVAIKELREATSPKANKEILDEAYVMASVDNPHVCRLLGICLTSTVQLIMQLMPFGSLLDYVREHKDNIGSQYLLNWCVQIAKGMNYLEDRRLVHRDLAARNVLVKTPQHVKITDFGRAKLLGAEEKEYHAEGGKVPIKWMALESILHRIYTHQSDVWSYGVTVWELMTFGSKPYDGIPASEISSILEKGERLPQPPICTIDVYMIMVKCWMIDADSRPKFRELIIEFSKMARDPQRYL
Procedure: The appropriate amount of target proteins calculated on the basis of the ADP-Glo assay manufacturer's protocol was incubated in 96-well half area white plates with serially diluted inhibitor over a 10-dose range from 0.0002, nM to 10 μM for 10 min at room temperature. ATP at concentration of 1, 10, 100 and 1,000 nM was mixed with 100 μg ml^−1 substrate and added to a kinase protein–inhibitor mixture, and then incubated for 60 min at room temperature. After the kinase reaction, an equal volume of ADP-Glo Reagent was added to terminate the kinase reaction, and the remaining ATP was depleted. The Kinase Detection Reagent was added both to convert ADP to ATP and to allow the newly synthesized ATP to be measured using the luciferase/luciferin reaction. The light generated was measured using a luminometer.

[17] = test system: PC9-triple mutant (C797S/T790M/del19) xenograft
Procedure: as §4

[18] = 180 mg per day, cited from earlier work
EGFR-mutated lung cancer = settings: patients with EGFR-mutated lung cancer, phase 1/2 trial; cited from earlier work

Compound: COc1cc(N2CCC(N3CCN(C)CC3)CC2)ccc1Nc1ncc(Cl)c(Nc2ccccc2P(C)(C)=O)n1 [Brigatinib, brigatinib]
- IC50 ([1]; BaF3, 72 h, read-out: IC50, Ba/F3 Del19): 43.7 nM
- IC50 ([1]; BaF3, read-out: IC50, Ba/F3 del19): 39.4 nM
- IC50 ([2]; BaF3, 72 h, read-out: IC50, Ba/F3 T790M/del19): 150 nM
- IC50 ([2]; BaF3, read-out: IC50, Ba/F3 T790M/del19): 120 nM
- IC50 ([3]; Mus musculus, BaF3, 72 h): 207 nM
- IC50 [3]: 133 nM
- IC50 (PC9 parent cells (del19)): 133 nM
- IC50 [4]: 244 nM
- IC50 [5]: 599 nM
- IC50 [6]: 155 nM
- IC50 [7]: 592 nM
- viability at 0.1 µM [8]: 10.3%
- viability at 0.1 µM [9]: 69.2%
- viability at 0.1 µM ([10]; BaF3, 72 h, 100 nM inhibitor, 72 h, DMSO = 100, mean of three independent experiments (Fig. 1a data)): 59.2%
- inhibition at 0.1 µM ([10]; BaF3, at 100 nM, read-out: growth inhibition against EGFR-triple-del19): ~50%
- phosphorylation of EGFR and downstream signalling, Ba/F3 triple-del19 [11]: decreased phosphorylation of EGFR and its downstream signalling pathway in a dose-dependent manner
- EGFR phosphorylation and downstream signalling, PC9 triple-mutant cells [12]: inhibited EGFR phosphorylation and its downstream signalling
- inhibitory activity (IC50) in cell lines without EGFR mutation [13]: less inhibitory activity to the cell lines without EGFR mutation than afatinib and osimertinib
- tumour growth, T790M/del19-expressing PC9 xenograft [14]: successfully suppressed the growth
- tumour growth, MGH121-res2 xenograft [15]: growth inhibition effect
- cell surface EGFR level [16]: no reduction
- mode of EGFR kinase inhibition (EGFR-C797S/T790M/L858R): competitively affected the ATP-binding site of the EGFR kinase domain
- toxicity, PC9 triple-mutant xenograft-bearing mice ([17]; body weight, brigatinib 75 mg kg^−1 daily, with or without cetuximab): without explicit toxicity
- tumour growth, PC9 triple-mutant xenograft ([17]; osimertinib 50 mg kg^−1, brigatinib 75 mg kg^−1 once daily oral, cetuximab 1 mg per mouse three times a week, panitumumab 0.5 mg per mouse two times a week): significant inhibition of the growth of PC9-triple mutant cells
- phosphorylation of EGFR and downstream signalling in tumour samples ([17]; western blotting of PC9-triple mutant tumours from mice): actually inhibited
- plasma concentration in a steady state ([18]; ref 48): 1,694.3 nM
- plasma concentration in a steady state ([18]; ref 49): 1,447 nM
- cases that achieved partial response (EGFR-mutated lung cancer): two of 42 cases
